Reference: patent US9034398B2, “Traditional Chinese drug comprising Danshen extracts and Sanqi extracts and use thereof” (TASLY Pharmaceutical Group Co., LTD., priority 2009, dated 2015)

Assays:
rat myocardial I/R model [1] = assay: FITC-labeled plasma albumin leakage from the venules of heart coronary vessels; format: in vivo; details: 5 mg/kg BW/h intravenous drip, 60 min after reperfusion; for FITC-labeled albumin leakage from the venules of the coronary vessels (images): FIG. 3A; for inhibitory effect on FITC-labeled albumin leakage (ratio of fluorescence intensity outside to inside the venules): FIG. 3B
Method: The rats were anesthetized by intramuscularly injecting 20 wt % urethane (1.25 g/kg) and fixed in the supine position. Neck skin was incised and anterior cervical muscles were separated to expose the trachea. Tracheal intubation was performed. Another end of the intubation was attached to a Small Animal Ventilator (ALC-V8, Shanghai Aoteshai Biology Science and Technology Limited Company, Shanghai, China) so as to carry out pressure breathing under the following conditions: a respiratory ratio of 1:1, a respiratory frequency of 75 times/min and a tidal volume of 12 mL/kg. The rectal temperature, measured with YSI REF 401 (Yellow Spring, Ohio, USA), was maintained at 37 37.5° C. by using a thermal blanket. The chest was sterilized and opened at the intercostal space between 2nd 4th ribs near the left and right sternal border to expose the heart. The 3⁄8 curved needle threaded with 3-0 suture was used to pass through the site at 1 2 mm below the juncture of the pulmonary artery cone and the left atrial appendage. The suture was ligated. A polyethylene tubule was placed between the silk suture and myocardial tissue, the silk suture was […] to cause ischemia. Ligature was released 30 min later to establish an I/R model. Danshensu+I/R group (DLA+I/R group): a Danshensu aqueous solution (in normal saline, 1.25 mg/ml) was administrated at a dosage of 5 mg/kg BW/h by intravenous drip 20 min before the experiment and continued until the end of the entire experiment. Notoginsenoside R1+I/R group (R1+I/R group): a Notoginsenoside R1 aqueous solution (in normal saline, 1.25 mg/ml) was administrated at a dosage of 5 mg/kg BW/h by intravenous drip 20 min before the experiment and continued until the end of the entire experiment. Danshensu:R1(4:1)+I/R group (DR(4:1)+I/R group): an aqueous solution of Danshensu and Notoginsenoside R1 at a weight ratio of 4:1, dissolved in normal saline (1.25 mg/ml, namely, in the solution, the concentration of Danshensu is 1 mg/ml and the concentration of Notoginsenoside R1 is 0.25 mg/ml), was administrated at a dosage of 5 mg/kg BW/h (namely, in the total dosage, the dosage of Danshensu is 4 mg/kg BW/h and the dosage of Notoginsenoside R1 is 1 mg/kg BW/h) by intravenous drip 20 min before the experiment and continued until the end of the entire experiment. […] Under an upright fluorescence microscope (USS-301, Leica, US), fluorescence image of each group was recorded with SIT camera by using a light at 455 nm as an exciting light and a mercury lamp (100 W) as an emission source. FITC fluorescence intensities inside the venules and the adjacent extravascular interstitial substance were measured with Image-Pro Plus 5.0 software, respectively. […]

rat myocardial I/R model [2] = assay: RBC velocity in the venules of heart coronary vessels after myocardial I/R; format: in vivo; details: for inhibitory effect on the decreased RBC velocity in the venules caused by I/R: from 30 min after reperfusion
Method: The rats were anesthetized by intramuscularly injecting 20 wt % urethane (1.25 g/kg) and fixed in the supine position. Neck skin was incised and anterior cervical muscles were separated to expose the trachea. Tracheal intubation was performed. Another end of the intubation was attached to a Small Animal Ventilator (ALC-V8, Shanghai Aoteshai Biology Science and Technology Limited Company, Shanghai, China) so as to carry out pressure breathing under the following conditions: a respiratory ratio of 1:1, a respiratory frequency of 75 times/min and a tidal volume of 12 mL/kg. The rectal temperature, measured with YSI REF 401 (Yellow Spring, Ohio, USA), was maintained at 37 37.5° C. by using a thermal blanket. The chest was sterilized and opened at the intercostal space between 2nd 4th ribs near the left and right sternal border to expose the heart. The 3⁄8 curved needle threaded with 3-0 suture was used to pass through the site at 1 2 mm below the juncture of the pulmonary artery cone and the left atrial appendage. The suture was ligated. A polyethylene tubule was placed between the silk suture and myocardial tissue, the silk suture was […] to cause ischemia. Ligature was released 30 min later to establish an I/R model. Danshensu+I/R group (DLA+I/R group): a Danshensu aqueous solution (in normal saline, 1.25 mg/ml) was administrated at a dosage of 5 mg/kg BW/h by intravenous drip 20 min before the experiment and continued until the end of the entire experiment. Notoginsenoside R1+I/R group (R1+I/R group): a Notoginsenoside R1 aqueous solution (in normal saline, 1.25 mg/ml) was administrated at a dosage of 5 mg/kg BW/h by intravenous drip 20 min before the experiment and continued until the end of the entire experiment. […] Heart coronary vessel microcirculation had been recorded by a CD video recorder ([…], US). […] The diameter of the venules and RBC velocity under a same visual field were recorded before ischemia, 30 min after ischemia, 30 min after reperfusion and 60 min after reperfusion. Recordings were replayed at 25 frames·s^-1, diameters of the arterioles and the venules as well as RBC velocities were measured with Image-Pro Plus 5.0 software. RBC velocities in the rat's heart arterioles and venules were expressed as “mm/s”, and the diameters of the rat's heart arterioles and venules were expressed as “μm”.

[3] = 5 mg/kg BW/h intravenous drip, FIG. 2

| Compound | FITC-labeled albumin leakage from the venules of the coronary vessels (images) (rat myocardial I/R model [1]) | inhibitory effect on FITC-labeled albumin leakage (ratio of fluorescence intensity outside to inside the venules) (rat myocardial I/R model [1]) | inhibitory effect on the decreased RBC velocity in the venules caused by I/R (rat myocardial I/R model [2]; [3]) | course of the inhibitory effect on decreased RBC velocity (rat myocardial I/R model [2]; 5 mg/kg BW/h intravenous drip, until 60 min after reperfusion, FIG. 2) | amelioration of RBC velocity in the venules of the heart coronary vessels caused by I/R (summary) (rat myocardial I/R model [2]; rats, summary statement of the description) |
| --- | --- | --- | --- | --- | --- |
| O=C(O)C(O)Cc1ccc(O)c(O)c1 (centres unmarked) [Danshensu, (3,4-dihydroxyphenyl)lactic acid] | can also be observed | Significant inhibitory effect on FITC-labeled albumin leakage has not been observed | significantly inhibitory effect | does not further improved | transiently ameliorate |
| CC(C)=CCC[C@](C)(O[C@@H]1O[C@H](CO)[C@@H](O)[C@H](O)[C@H]1O)[C@H]1CC[C@]2(C)[C@@H]1[C@H](O)C[C@@H]1[C@@]3(C)CC[C@H](O)C(C)(C)[C@@H]3[C@@H](O[C@@H]3O[C@H](CO)[C@@H](O)[C@H](O)[C@H]3O[C@@H]3OC[C@@H](O)[C@H](O)[C@H]3O)C[C@]12C [Notoginsenoside R1] | can also be observed | Significant inhibitory effect on FITC-labeled albumin leakage has not been observed | does not display a significantly inhibitory effect |  |  |
